Experimental data taken from US7998937B2, “Flavonoid compound having an antiviral activity” (Korea Research Institute of Bioscience and Biotechnology, priority 2005, dated 2011).
In brackets after ≈: the same amount, converted by molar mass. Read-outs that look alike come from different tables or passages of the source.

Columns and labels:
[1] = tested on: rhinovirus (strain: rhinovirus 2); assay: Inhibitory activity against rhinovirus in HeLa cells (SRB); format: cell-based; settings: for inhibition at 10 µg/mL: Enterovirus, HeLa, 48 h, read-out: Inhibitory activity (%) (Mean ± S.D.)
Protocol: In order to evaluate the inhibitory activity of quercetin-7-rhamnoside against rhino virus, the following in vitro test was performed using HeLa, one of human cervical cancer cell lines, cells. Inhibitory activity of quercetin-7-rhamnoside against viral proliferation was measured by the method proposed by Kwon Dur-Han, et al. (Korean Patent Publication No. 2004-101863). […] HeLa cells were cultured on a 96-well microplate until the bottom of each well was completely covered with cells. Remaining culture medium was removed and each well was washed twice with a phosphate buffer. A rhino virus solution adjusted to a concentration of TCID 50 was added to each well. […] After 48 hours, the HeLa cells were observed under a microscope. After adding 100 μL of 70% acetone, each well was kept at −20° C. for 1 hour. After drying in a desiccator, 100 μL of 0.4% (w/v) SRB (sulforhodamine B) solution dissolved in 1% (v/v) acetic acid was added. After 30 minutes of staining, the SRB solution not bound to the cells was washed off with 1% (v/v) acetic acid for 4 times. After drying, 100 μL of 10 mM Tris solution (pH 10.5) was added to each well to dissolve the stained substance at the bottom of the well. Light absorbance was measured at 562 nm to evaluate the antiviral activity. As control group, viability of cells treated with DMSO only was compared with those treated with both DMSO and virus. Each test was repeated for 3 times.

in vitro [2] = settings: African green monkey
[3] = tested on: porcine epidemic diarrhea virus (PEDV); assay: Antiviral activity against PEDV in Vero cells (SRB staining); settings: for IC50: Porcine epidemic diarrhea virus, Vero, 48 h, read-out: IC50 (concentration required for 50% inhibition of viruses); for IC50 (concentration required for 50% inhibition of viruses) / Inhibitory activity (TI = CC50/IC50): PEDV in Vero cells, 48 hours; for IC50 (concentration required for 50% inhibition of viruses): maximum dosage 100 μg/mL; for Inhibitory activity (TI = CC50/IC50): 0.1-100 μg/mL
[4] = tested on: porcine transmissible gastroenteritis virus (TGEV); assay: Anti-coronavirus inhibitory activity against TGEV in ST cells; format: cell-based; settings: for inhibitory activity against TGEV (in words): 0.1-100 μg/mL, 48 hours
Protocol: (§1) Antiviral activity of quercetin-7-rhamnoside against porcine transmissible gastroenteritis virus (TGEV) and porcine respiratory coronavirus (PRCV), another kind of coronaviruses, was evaluated. ST cells were cultured on a 96-well microplate until the bottom of each well was completely covered with cells. Remaining culture medium was completely removed and each well was washed twice with a phosphate buffer. TGEV or PRCV solution adjusted to a concentration of TCID50 was added to each well. Each of quercetin-7-rhamnoside, conventional antiviral agents purchased from Sigma-ribavirin, lamivudine, azidovudine, acycloguanine and glycyrrhizhin-dissolved in dimethyl sulfoxide was added to each well to a final concentration of 0.1-100 μg/mL. […] Similarly to the aforesaid evaluation of antiviral inhibitory activity against PEDV, c ells treated with DMSO only and those treated with both DMSO and TGEV or both DMSO and PRCV were used as control groups.

[5] = tested on: porcine respiratory coronavirus (PRCV); assay: Anti-coronavirus inhibitory activity against PRCV in ST cells; format: cell-based; settings: for inhibitory activity against PRCV (in words): 0.1-100 μg/mL, 48 hours
Protocol: as §1

rotavirus (strain: OSU) = assay: Inhibitory activity against rotavirus in MA104 cells (SRB); format: cell-based; settings: read-out: Inhibitory activity (%) (Mean ± S.D.)
Protocol: In order to evaluate the inhibitory activity of quercetin-7-rhamnoside against rota virus, the following in vitro test was performed using MA014 cells derived from […] kidney. Inhibitory activity of quercetin-7-rhamnoside against viral proliferation was measured by the method proposed by Kwon Dur-Han, et al. (Korean Patent Publication No. 2004-101863). Inhibitory activity against rotavirus (strain: OSU) was measured. MA104 cells were cultured on a 96-well microplate until the bottom of each well was completely covered with cells. Remaining culture medium was removed and each well was washed twice with a phosphate buffer. A rota virus solution adjusted to a concentration of TCID 50 was added to each well. […] After 48 hours, the MA104 cells were observed under a microscope. After adding 100 μL of 70% acetone, each well was kept at −20° C. for 1 hour. After drying in a desiccator, 100 μL of 0.4% (w/v) SRB (sulforhodamine B) solution dissolved in 1% (v/v) acetic acid was added. After 30 minutes of staining, the SRB solution not bound to the cells was washed off with 1% (v/v) acetic acid for 4 times. After drying, 100 μL of 10 mM Tris solution (pH 10.5) was added to each well to dissolve the stained substance at the bottom of the well. Light absorbance was measured at 562 nm to evaluate the antiviral activity. As control group, viability of cells treated with DMSO only was compared with those treated with both DMSO and virus. Each test was repeated for 2 times.

[6] = tested on: influenza type A (H1N1/WS/33) virus; assay: Antiviral activity against influenza type A virus in MDCK cells (SRB); format: cell-based, influenza virus type A (H1N1; WS/33 strain); settings: Influenza A virus; 10 μg/mL, influenza A H1N1/WS/33 in MDCK cells, 48 hours, repeated 3 times; read-out: Inhibitory activity (%) (Mean ± S.D.)
Protocol: In order to evaluate the inhibitory activity of quercetin-7-rhamnoside against influenza virus, the following in vitro test was performed using MDCK cells derived from dog kidney.
Inhibitory activity of quercetin-7-rhamnoside against viral proliferation was measured by the method proposed by Kwon Dur-Han, et al. (Korean Patent Application No. 2004-101863). Inhibitory activity against influenza virus type A (H1N1; WS/33 strain) was measured. MDCK cells were cultured on a 96-well microplate until the bottom of each well was completely covered with cells. Remaining culture medium was completely removed and each well was washed twice with a phosphate buffer. Each of quercetin-7-rhamnoside; conventional antiviral agents purchased from Sigma-ribavirin and amantadine; oseltamivir (trade name: Tamiflu) purchased from Roche; and zanamivir (trade name: Relenza) purchased from Glaxo Wellcome; dissolved in dimethyl sulfoxide was added to each well to a final concentration of 10 μg/mL. […] After adding 100 μL of 70% acetone, each well was kept at −20° C. for 1 hour. After drying in a desiccator, 100 μL of 0.4% (w/v) SRB (sulforhodamine B) solution dissolved in 1% (v/v) acetic acid was added. After 30 minutes' staining, the SRB staining solution not bound to the cells was washed off with 1% (v/v) acetic acid for 4 times. After drying, 100 μL of 10 mM Tris solution (pH 10.5) was added to each well to dissolve the stained substance at the bottom of the well. Light absorbance was measured at 562 nm to evaluate the antiviral activity. As control group, viability of cells treated with DMSO only was compared with those treated with both DMSO and virus. Each test was repeated 3 times.

[7] = tested on: influenza type B (B/Lee/40) virus; assay: Inhibitory activity against influenza type B virus in MDCK cells (SRB); format: cell-based; settings: Influenza B virus, read-out: Inhibitory activity (%) (Mean ± S.D.)
in vitro [8] = settings: pig
[9] = 10 μg/mL, rhinovirus 2 in HeLa cells, 48 hours, repeated 3 times
[10] = 10 μg/mL, rotavirus OSU in MA104 cells, 48 hours, repeated 2 times
[11] = 10 μg/mL, influenza B/Lee/40 in MDCK cells, 48 hours, repeated 3 times
[12] = Alphacoronavirus 1, 48 hours, read-out: IC50

## O=c1cc(-c2ccc(O)cc2)oc2cc(O)cc(O)c12 [Apigenin, apigenin]
[1]; [9]
  inhibition at 10 µg/mL: 9.24%
In vitro [2]
  CC50 at 48 h: 50 µg/mL (≈ 185 µM)
[3]
  IC50: 0.1 µg/mL (≈ 0.37 µM)

## COc1ccc([C@@H]2CC(=O)c3c(O)cc(O[C@@H]4O[C@H](CO[C@@H]5O[C@@H](C)[C@H](O)[C@@H](O)[C@H]5O)[C@@H](O)[C@H](O)[C@H]4O)cc3O2)cc1O [Hesperidin, hesperidin]
[1]; [9]
  Inhibitory activity (%) (Mean ± S.D.): 3.12%
[3]
  IC50 (concentration required for 50% inhibition of viruses): IC50 not attained even at the maximum dosage.

## CC1(C)[C@@H](O[C@H]2O[C@H](C(=O)O)[C@@H](O)[C@H](O)[C@H]2O[C@@H]2O[C@H](C(=O)O)[C@@H](O)[C@H](O)[C@H]2O)CC[C@]2(C)[C@H]3C(=O)C=C4[C@@H]5C[C@@](C)(C(=O)O)CC[C@]5(C)CC[C@@]4(C)[C@]3(C)CC[C@@H]12 [Glycyrrhizin, glycyrrhizin]
[4]
  inhibitory activity against TGEV (in words): no inhibitory activity
[5]
  inhibitory activity against PRCV (in words): no inhibitory activity
Rotavirus (strain: OSU); Rotavirus, MA104, 48 h
  inhibition at 10 µg/mL: 0.49%

## Nc1ccn([C@@H]2CS[C@H](CO)O2)c(=O)n1 [Lamivudine, lamivudine]
[4]
  inhibitory activity against TGEV (in words): no inhibitory activity
[5]
  inhibitory activity against PRCV (in words): no inhibitory activity
Rotavirus (strain: OSU); [10]
  inhibition at 10 µg/mL: 0.02%
[3]
  IC50: > 100 µg/mL

## CCOC(=O)C1=C[C@@H](OC(CC)CC)[C@H](NC(C)=O)[C@@H](N)C1 [Tamiflu, oseltamivir]
[6]
  inhibition at 10 µg/mL: -9.78%
[7]; MDCK, 48 h
  inhibition at 10 µg/mL: -1.43%
[3]
  IC50 (concentration required for 50% inhibition of viruses): IC50 not attained even at the maximum dosage

## CC(=O)N[C@H]1[C@H]([C@H](O)[C@H](O)CO)OC(C(=O)O)=C[C@@H]1N=C(N)N [Relenza, zanamivir]
[6]
  inhibition at 10 µg/mL: 52.7%
[7]; [11]
  inhibition at 10 µg/mL: 3.4%
Rotavirus (strain: OSU); [10]
  inhibition at 10 µg/mL: 0.5%
[3]
  IC50 (concentration required for 50% inhibition of viruses): IC50 not attained even at the maximum dosage

## O=c1c(-c2ccc(O)cc2)coc2cc(O[C@@H]3O[C@H](CO)[C@@H](O)[C@H](O)[C@H]3O)cc(O)c12 [Genistin, genistin]
[1]; [9]
  inhibition at 10 µg/mL: 13%
[3]
  IC50 (concentration required for 50% inhibition of viruses): IC50 not attained even at the maximum dosage.
  IC50: > 100 µg/mL

## O=c1cc(-c2ccc(O)c(O)c2)oc2cc(O)cc(O)c12 [Luteolin, luteolin]
[1]; [9]
  inhibition at 10 µg/mL: 21.8%
[3]
  IC50: 0.21 µg/mL (≈ 0.734 µM)

## Nc1nc2c(ncn2COCCO)c(=O)[nH]1 [Acycloguanine, acycloguanine]
[4]
  inhibitory activity against TGEV (in words): no inhibitory activity
[5]
  inhibitory activity against PRCV (in words): no inhibitory activity
Rotavirus (strain: OSU); [10]
  inhibition at 10 µg/mL: 0.78%
[3]
  IC50 (concentration required for 50% inhibition of viruses): IC50 not attained even at the maximum dosage
  IC50: > 100 µg/mL

## C[C@@H]1O[C@@H](OC[C@H]2O[C@@H](Oc3c(-c4ccc(O)c(O)c4)oc4cc(O)cc(O)c4c3=O)[C@H](O)[C@@H](O)[C@@H]2O)[C@H](O)[C@H](O)[C@H]1O [Rutin, rutin]
[1]; [9]
  inhibition at 10 µg/mL: 25.7%
[3]
  IC50: > 100 µg/mL

## C[C@@H]1O[C@@H](Oc2c(-c3ccc(O)c(O)c3)oc3cc(O)cc(O)c3c2=O)[C@H](O)[C@H](O)[C@H]1O [Quercitrin, quercitrin]
[1]
  inhibition at 10 µg/mL: 13.4%
[3]
  IC50: > 100 µg/mL

## NC12CC3CC(CC(C3)C1)C2 [Amantadine, amantadine]
[6]
  inhibition at 10 µg/mL: 14.6%
[7]; MDCK, 48 h
  inhibition at 10 µg/mL: -1.85%

## NC(=O)c1ncn([C@@H]2O[C@H](CO)[C@@H](O)[C@H]2O)n1 [Ribavirin, ribavirin]
[4]; [12]
  IC50: 55.1 µg/mL (≈ 226 µM)
[5]; [12]
  IC50: 61.6 µg/mL (≈ 252 µM)
[6]
  inhibition at 10 µg/mL: 74.2%
[7]; [11]
  inhibition at 10 µg/mL: 95.8%
Rotavirus (strain: OSU); [10]
  inhibition at 10 µg/mL: 82.3%
[1]; [9]
  Inhibitory activity (%) (Mean ± S.D.): 42.32 ± 4.38%
  inhibition at 10 µg/mL: 42.3%
In vitro [2]
  CC50 at 48 h: > 100 µg/mL
In vitro [8]
  CC50 at 48 h: > 100 µg/mL
[3]
  IC50: 4.1 µg/mL (≈ 16.8 µM)

## O=c1c(O)c(-c2ccc(O)c(O)c2)oc2cc(O)cc(O)c12 [Quercetin, quercetin]
[1]; [9]
  inhibition at 10 µg/mL: 9.87%
In vitro [2]
  CC50 at 48 h: 365 µg/mL (≈ 1210 µM)
[3]
  IC50: 10.7 µg/mL (≈ 35.4 µM)

## catechin
[1]; [9]
  Inhibitory activity (%) (Mean ± S.D.): 11.21%
[3]
  Inhibitory activity (TI = CC50/IC50): > 9.0
  IC50 (concentration required for 50% inhibition of viruses): 11.1 µg/mL
[3]; listed as catechin
  Inhibitory activity (TI = CC50/IC50): 9.0
